The term pIC50 denotes the IC50 on a negative log10 scale, so that one unit is a factor of ten. A low value points to a large IC50.

Assay [1] deals with T1, Serine/threonine-protein kinase D1 (Homo sapiens) (UniProt Q15139).
T1 sequence (whole entry): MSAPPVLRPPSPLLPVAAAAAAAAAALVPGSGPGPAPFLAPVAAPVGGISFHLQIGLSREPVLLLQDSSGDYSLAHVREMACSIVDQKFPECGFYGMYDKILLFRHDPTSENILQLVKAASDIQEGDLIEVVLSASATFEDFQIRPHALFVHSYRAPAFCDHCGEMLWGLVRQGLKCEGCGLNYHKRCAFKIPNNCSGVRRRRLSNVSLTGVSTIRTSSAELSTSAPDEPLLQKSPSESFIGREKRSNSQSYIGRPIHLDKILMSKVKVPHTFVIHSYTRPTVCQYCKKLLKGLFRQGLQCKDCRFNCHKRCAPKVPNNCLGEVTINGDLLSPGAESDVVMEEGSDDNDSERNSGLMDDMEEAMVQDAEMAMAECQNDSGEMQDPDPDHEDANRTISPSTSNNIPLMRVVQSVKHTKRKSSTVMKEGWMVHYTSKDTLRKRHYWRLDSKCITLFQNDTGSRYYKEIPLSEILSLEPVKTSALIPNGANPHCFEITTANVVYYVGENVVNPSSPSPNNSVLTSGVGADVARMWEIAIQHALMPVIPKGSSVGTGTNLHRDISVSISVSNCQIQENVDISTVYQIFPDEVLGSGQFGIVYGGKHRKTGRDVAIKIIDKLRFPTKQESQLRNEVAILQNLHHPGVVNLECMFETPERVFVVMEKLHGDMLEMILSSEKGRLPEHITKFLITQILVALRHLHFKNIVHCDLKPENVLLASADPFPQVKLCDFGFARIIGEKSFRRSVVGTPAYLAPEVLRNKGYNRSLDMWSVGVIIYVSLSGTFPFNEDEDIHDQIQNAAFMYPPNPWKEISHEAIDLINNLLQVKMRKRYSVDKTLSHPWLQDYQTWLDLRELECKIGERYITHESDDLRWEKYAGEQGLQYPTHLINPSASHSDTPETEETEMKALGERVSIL
The assay is described as follows: Selectivity interaction (KinomeScan (DiscoverX)) EUB0001619a PRKD1. The following applies: at 1 µM.

Assay [2] addresses T2, Aurora kinase A (Homo sapiens) (UniProt O14965).
T2 sequence (whole entry): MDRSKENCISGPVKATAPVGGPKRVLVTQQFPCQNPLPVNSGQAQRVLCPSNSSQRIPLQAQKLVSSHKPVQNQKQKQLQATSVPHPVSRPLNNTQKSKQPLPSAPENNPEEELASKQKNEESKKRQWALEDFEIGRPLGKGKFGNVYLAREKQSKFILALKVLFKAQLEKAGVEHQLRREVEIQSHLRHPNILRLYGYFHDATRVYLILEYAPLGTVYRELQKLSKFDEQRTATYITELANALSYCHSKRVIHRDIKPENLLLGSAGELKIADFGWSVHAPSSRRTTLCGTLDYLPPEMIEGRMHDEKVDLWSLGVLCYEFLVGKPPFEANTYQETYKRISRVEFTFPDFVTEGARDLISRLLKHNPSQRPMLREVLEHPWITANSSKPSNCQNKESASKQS
The assay is described as follows: Selectivity interaction (SelectScreen profiling (Invitrogen)) EUB0000607a STK6. The following applies: at 2 µM.

In assay [3] the target is Myosin light chain kinase family member 4 (Homo sapiens, UniProt Q86YV6). The assay can be described thus: Selectivity interaction (NanoBRET assay (HEK293T cells)) EUB0001550a MYLK4. It counts as cell-based, HEK-293T. For orientation: In BRET a luciferase serves as donor, and the signal depends on an acceptor being close.
In assay [4] the target is Mitogen-activated protein kinase 7 (Homo sapiens) (UniProt Q13164). The following applies: at 10 µM.
The subject of assay [5] is Tyrosine-protein kinase ABL1 (Homo sapiens), P00519 [T315I]. Particulars: at 10 µM.
In assay [6] the target is Bone morphogenetic protein receptor type-1A (Homo sapiens, UniProt P36894). Particulars: at 10 µM.
In assay [7] the target is T3, Serine/threonine-protein kinase TAO1 (Homo sapiens) (UniProt Q7L7X3).
T3 sequence (whole entry): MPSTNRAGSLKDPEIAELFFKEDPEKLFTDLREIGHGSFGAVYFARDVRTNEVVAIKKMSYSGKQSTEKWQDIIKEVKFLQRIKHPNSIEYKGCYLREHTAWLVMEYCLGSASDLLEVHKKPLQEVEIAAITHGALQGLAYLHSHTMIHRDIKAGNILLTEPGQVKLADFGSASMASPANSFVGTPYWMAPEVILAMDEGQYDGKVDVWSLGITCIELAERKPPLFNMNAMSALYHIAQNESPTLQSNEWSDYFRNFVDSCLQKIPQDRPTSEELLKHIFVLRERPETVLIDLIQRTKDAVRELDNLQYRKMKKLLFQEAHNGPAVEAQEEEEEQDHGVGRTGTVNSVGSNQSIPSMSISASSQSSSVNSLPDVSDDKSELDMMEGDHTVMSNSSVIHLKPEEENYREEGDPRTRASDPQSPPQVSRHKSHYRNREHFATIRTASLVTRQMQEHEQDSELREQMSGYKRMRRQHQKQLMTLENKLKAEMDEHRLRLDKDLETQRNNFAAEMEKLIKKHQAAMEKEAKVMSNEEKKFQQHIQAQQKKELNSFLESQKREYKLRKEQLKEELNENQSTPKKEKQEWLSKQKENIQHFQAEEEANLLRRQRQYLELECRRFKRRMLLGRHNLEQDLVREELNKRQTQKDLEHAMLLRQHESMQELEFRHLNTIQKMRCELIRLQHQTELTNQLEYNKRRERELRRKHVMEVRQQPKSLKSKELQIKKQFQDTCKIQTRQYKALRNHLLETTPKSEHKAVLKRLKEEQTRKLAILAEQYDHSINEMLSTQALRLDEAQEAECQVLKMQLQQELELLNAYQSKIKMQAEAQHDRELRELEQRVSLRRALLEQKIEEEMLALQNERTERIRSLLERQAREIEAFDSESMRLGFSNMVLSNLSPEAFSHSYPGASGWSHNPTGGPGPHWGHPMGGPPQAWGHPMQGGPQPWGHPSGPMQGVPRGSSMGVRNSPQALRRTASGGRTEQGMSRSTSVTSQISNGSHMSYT
The assay is described as follows: Selectivity interaction (KinomeScan (DiscoverX)) EUB0000655a TAOK1. Particulars: at 10 µM.

The target of the next assay is Adenosine receptor A2a (Homo sapiens, UniProt P29274). The assay is described as follows: Selectivity interaction (Panel of non-epigenetic targets (kinases, GPCRs, ion channels, and transporters, Eurofins) ) EUB0000271b ADORA2A. The following applies: at 1 µM.

pIC50: −log10 of the molar value.

Chain of Myosin light chain kinase family member 4 (Q86YV6 whole entry): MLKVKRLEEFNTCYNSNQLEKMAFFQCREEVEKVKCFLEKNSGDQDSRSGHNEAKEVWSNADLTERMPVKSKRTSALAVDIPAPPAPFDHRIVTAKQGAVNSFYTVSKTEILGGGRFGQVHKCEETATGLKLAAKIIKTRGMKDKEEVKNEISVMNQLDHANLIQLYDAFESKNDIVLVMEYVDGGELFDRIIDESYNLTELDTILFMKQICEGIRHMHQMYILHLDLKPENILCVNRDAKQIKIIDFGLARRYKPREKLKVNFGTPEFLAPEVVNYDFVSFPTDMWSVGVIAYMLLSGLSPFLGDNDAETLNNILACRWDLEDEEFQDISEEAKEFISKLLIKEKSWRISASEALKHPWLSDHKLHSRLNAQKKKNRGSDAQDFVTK
Chain of Bone morphogenetic protein receptor type-1A (P36894 whole entry): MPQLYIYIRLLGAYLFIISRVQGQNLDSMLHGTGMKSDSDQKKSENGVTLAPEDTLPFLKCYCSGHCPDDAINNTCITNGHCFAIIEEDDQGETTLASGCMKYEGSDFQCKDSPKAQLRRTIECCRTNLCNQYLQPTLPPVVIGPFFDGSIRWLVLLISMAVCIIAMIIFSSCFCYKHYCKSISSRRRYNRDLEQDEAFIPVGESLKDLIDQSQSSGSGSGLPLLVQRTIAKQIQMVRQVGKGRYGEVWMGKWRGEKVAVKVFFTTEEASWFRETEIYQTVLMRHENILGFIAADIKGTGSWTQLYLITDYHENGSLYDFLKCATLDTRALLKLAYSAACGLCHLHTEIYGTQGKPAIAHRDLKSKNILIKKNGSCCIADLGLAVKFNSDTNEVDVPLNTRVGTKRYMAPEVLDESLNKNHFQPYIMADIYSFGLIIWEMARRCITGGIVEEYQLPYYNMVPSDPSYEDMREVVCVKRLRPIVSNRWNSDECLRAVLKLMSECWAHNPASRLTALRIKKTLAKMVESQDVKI
Chain of Mitogen-activated protein kinase 7 (Homo sapiens) (Q13164 2-816 limits assumed): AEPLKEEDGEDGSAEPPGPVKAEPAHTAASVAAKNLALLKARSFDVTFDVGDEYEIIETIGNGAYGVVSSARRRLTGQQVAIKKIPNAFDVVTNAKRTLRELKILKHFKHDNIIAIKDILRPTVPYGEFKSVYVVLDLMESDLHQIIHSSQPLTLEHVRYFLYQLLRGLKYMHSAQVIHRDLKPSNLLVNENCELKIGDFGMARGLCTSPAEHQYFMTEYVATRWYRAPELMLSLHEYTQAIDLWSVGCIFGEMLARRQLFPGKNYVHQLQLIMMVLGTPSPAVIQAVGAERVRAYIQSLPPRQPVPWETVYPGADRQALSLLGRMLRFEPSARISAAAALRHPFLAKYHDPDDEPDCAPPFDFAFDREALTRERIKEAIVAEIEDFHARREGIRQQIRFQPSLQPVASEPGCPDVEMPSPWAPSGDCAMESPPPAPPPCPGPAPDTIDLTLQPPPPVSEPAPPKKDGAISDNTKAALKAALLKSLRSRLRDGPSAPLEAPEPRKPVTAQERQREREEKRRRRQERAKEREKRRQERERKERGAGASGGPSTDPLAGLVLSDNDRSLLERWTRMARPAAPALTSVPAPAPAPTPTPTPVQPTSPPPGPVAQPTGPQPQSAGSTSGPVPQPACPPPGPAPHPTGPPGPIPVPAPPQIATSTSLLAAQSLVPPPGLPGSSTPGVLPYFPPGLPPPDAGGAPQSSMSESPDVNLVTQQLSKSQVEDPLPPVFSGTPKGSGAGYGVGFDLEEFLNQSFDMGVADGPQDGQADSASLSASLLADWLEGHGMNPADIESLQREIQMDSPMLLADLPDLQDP
Chain of Adenosine receptor A2a (P29274 whole entry): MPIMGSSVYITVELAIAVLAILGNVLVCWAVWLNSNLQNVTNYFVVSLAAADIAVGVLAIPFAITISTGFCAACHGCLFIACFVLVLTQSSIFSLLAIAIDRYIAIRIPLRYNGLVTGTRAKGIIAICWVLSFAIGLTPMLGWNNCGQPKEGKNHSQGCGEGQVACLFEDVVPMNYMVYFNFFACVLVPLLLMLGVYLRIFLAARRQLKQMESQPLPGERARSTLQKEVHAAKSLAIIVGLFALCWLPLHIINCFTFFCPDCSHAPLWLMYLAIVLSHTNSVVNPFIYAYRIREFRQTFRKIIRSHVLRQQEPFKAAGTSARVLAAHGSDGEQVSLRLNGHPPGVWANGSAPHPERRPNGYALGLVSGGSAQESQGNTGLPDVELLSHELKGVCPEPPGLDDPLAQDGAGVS

Turning to `N#Cc1cccc(-c2c[nH]c3ncnc(N4CCOCC4)c23)c1`, the % of control in assay [1] was found to be 100%.

As to `CNC(=O)Nc1ccc(-c2nc(N3CC4CCC(C3)O4)c3cnn(C4CCC5(CC4)OCCO5)c3n2)cc1`, the % of inhibition in assay [2] amounted to 0%.

For `CN(C)CC#Cc1ccc2[nH]c3c(c2c1)-c1nc(N)ncc1CCC3`, the pIC50 in assay [3] was 6.57.

Consider `Cc1cc([C@@H](C)Nc2ccccc2C(=O)O)c2nc(N3CCOCC3)cc(=O)n2c1` [AZD-6482], for which the % of control in assay [4] was 100%; in assay [5], 100%; in assay [6], 98%.

In assay [7], `CN(C)CCOc1ccc(-c2nc(-c3ccncc3)c(-c3ccc4c(c3)CC/C4=N\O)[nH]2)cc1` registered a % of control of 81%.

As for `Cc1cc(C)cc([C@@H]2c3cc(C)ccc3NC(=O)CN2C(=O)c2ccc(Br)s2)c1`, the % of inhibition on Adenosine receptor A2a was 2%.

The values above are taken from ChEMBL document CHEMBL5465560, “Selectivity Literature for EUbOPEN Chemogenomic Library” (2024).
